The source of these data is US6319952A, “Compositions and methods for reversibly increasing permeability of biomembranes” (D-Pharm Ltd., priority 1997, dated 2001).

Data set [1] concerns blood-brain barrier (BBB). In words: Effect of branched chain fatty acids on BBB permeability by qualitative Evan's Blue (EB) evaluation in rats. It is filed as in vivo, rat (male Sprague-Dawley). To be noted: intracarotid infusion. The method, then: Evaluation of Effect of Branched Fatty Acids on Blood-brain Barrier Permeability
The experiments were carried out on male Sprague-Dawley rats weighing 250-320 gr. They were anesthetized with Rampun-Imalgen. The right common carotid artery was exposed.
The test compounds were dissolved in 0.1M phosphate buffered physiological saline (pH=7.4) at the following test concentrations: 1.6; 8; 20; 40; 200 and 1000 μg/ml.
The test compound was infused into the right common carotid artery at a rate of 6 ml/min. for 30 s. The control rats were infused with buffer. Evan's Blue (EB) solution at a concentration of […] (2 g Evan's Blue, 0.9 g NaCl in 100 ml water) was injected intravenously 50 minutes prior to the termination of the experiment.
In the case of 45 min experiment, five minutes prior to the infusion of the tested material, 4 ml/kg body wt dose of Evans Blue solution was injected intravenously.
At the end of the experimental time period the animals were perfused with 100 ml of saline solution through the heart and decapitated. The degree of BBB opening, in terms of extravasation of Evan's Blue albumin, was graded on the basis of visual assessment of the degree of staining of the brain ato the method of Rapoport et al. (Rapoport et al., 1980, Amer. J. Physiol. 258, 421-431), and the results are presented in Tables 1 and 2.
The results presented are qualitative with four degrees of Evan's Blue extravasation according to Rapoport et al. Minus signs represents no staining and three plus signs represent maximal staining.

The test system of the next data set is mice. In words: Acute intravenous toxicity test in mice. To be noted: i.v.; for dose causing mortality: mice, three days. It is filed as in vivo. The method, then: An acute intravenous toxicity test was performed to study the toxicity of the branched fatty acids in mice. The study included mortality and behavioral observations during three days. The rate of mortality is represented in the Table 5. M 3/14 caused mortality at a dose of 175 mg/kg; M3/12 at a dose of 75 mg/kg and M 3/10 at a dose of 100 mg/kg. Death was observed ten minutes after i.v. injection. In sub-lethal doses no significant behavior changes were observed.

Data set [2] concerns blood brain barrier. As to conditions: cited from earlier work.
Data set [3] deals with blood brain barrier. As to conditions: Sztriha and Betz; cited from earlier work.
A further data set deals with membrane. As to conditions: Perlman and Goldstein; cited from earlier work.

Regarding `CCCCCCCCCCC(CCC)C(=O)O` (stereo not drawn) [M 3/10, 2-propyldodecanoic acid], in data set [1] (625 μM, 45 min), the “Visual EB” value is “++”. Moreover, the Mortality with mice (50 mg/kg, 10 mg/ml) is 0/3; with mice (100 mg/kg, 10 mg/ml) it was 3/3. Moreover, in the data set on mice, the dose causing mortality was found to be 100 mg/kg.

For `CCCCCCCCCCCCC(CCC)C(=O)O` (stereo not drawn) [M 3/12, 2-propyltetradecanoic acid], the “Visual EB” value in data set [1] (125 μM, 180 min) is “++”. Also, the Mortality is recorded as 0/3 in the data set on mice (50 mg/kg, 2.5 mg/ml) and 3/3 in the data set with mice (75 mg/kg, 2.5 mg/ml). Moreover, in the data set on mice, the dose causing mortality came to 75 mg/kg.

On to `CCCCCCCCCCC(CCCCCCCCCC)C(=O)O` [M 10/10, 2-decanyldodecanoic acid], for which the “Visual EB” value in data set [1] (625 μM, 45 min) is listed as “++”.

`OC[C@@H](O)[C@@H](O)[C@H](O)[C@H](O)CO` [Mannitol]: in the data set on blood brain barrier [2] (osmotic modification, chemotherapy after barrier opening), the “drug entry after barrier opening” value was “enhanced drug entry to both brain-tumor and brain”. The “complications of osmotic BBB modification” value in the data set with blood brain barrier [2] (osmotic modification) is “clinical manifestation of stroke, seizures, immunological reaction and ocular toxicity”. In addition, the “duration of BBB opening” value with blood brain barrier [2] (osmotic treatment, Greig) is recorded as “very short period”.

Regarding `CCCCCCCC/C=C\CCCCCCCC(=O)O` [oleic acid, reference compound], in the data set on blood brain barrier [3], the “opening of the BBB” value is on record as “reversibly open the BBB”. Moreover, in data set [1] (125 μM, 180 min), the “Visual EB” value is listed as “-”.

As to `CCCC(CCC)C(=O)O` [valproic acid], the membrane disordering result in the data set on membrane is “membrane disordering potency”.
